Test results as given in patent US4489091A, “Antilipemic and anti-inflammatory compositions containing sulfonate derivatives” (Taiho Pharmaceutical Company Limited, priority 1980, dated 1984).
Where two headings read alike, the source gives them in different places.

Legend:
Acute toxicity = details: rat, in vivo
From the text: Six-week-old male Wistar rats weighing 180 to 200 g are used, 5 rats in each group. Each compound of the invention is suspended in a 30% aqueous solution of polyethylene glycol 6000 and orally given to the rat at the dosage shown in Table 2. The animals are checked for poisoning, body weight and survival to determine the LD50 value.

cholesterol = experiment: Antilipemic effect: percent total cholesterol inhibition in plasma of rats given an olive oil-cholesterol mixture; assay type: in vivo, male Wistar rats; details: for inhibition in vivo at 100 mg/kg: read-out: Anti-lipemic effect, CS (percent cholesterol inhibition)
Experimental: (§1) The above compounds of this invention are tested by the following methods for antilipemic effect and acute toxicity. In the column of antilipemic effect in the table, the asterisked values indicate the effect achieved by orally giving 200 mg/kg of the compounds concerned, and the unmarked values, the effect attained by orally giving 100 mg/kg. In the same column, "TG" stands for percent triglycerides inhibition and "CS" percent cholesterol inhibition.
(§2) Seven-week-old male Wistar rats weighing 200 to 220 g are used, 5 rats in each group.
(§3) Each compound of the invention (100 mg or 200 mg) is dissolved in 10 ml of an olive oil-cholesterol mixture (containing 15% of cholesterol). The mixture containing the compound is orally given to the rat with a probe at a dose of 10 ml/kg. Two or 8 hours thereafter, 6 ml of whole blood is withdrawn from the descending aorta of the rat under ether anesthesia with a syringe containing heparin. The blood is centrifuged at 5° C. and 3000 r.p.m. to obtain the plasma. The plasma collected after the lapse of 2 hours is used for determining the triglycerides content, and the plasma obtained 8 hours later for determining the total cholesterol content, using a triglycerides measuring kit (trade mark "Triglycerides-B Test Wako," product of Wako Junyaku Co., Ltd., Japan) and a total cholesterol measuring kit (trade mark "Cholesterol Test Wako," product of the same), respectively. The olive oil-cholesterol mixture containing no compound is similarly given to a control group, while no treatment is conducted for a normal group. The triglycerides and total cholesterol contents in the plasma are also determined for these groups in the same manner as is the case with the test groups.
(§4) The present hyperlipidemia inhibition achieved by the present compound is given by [formula] in which A is the triglycerides (cholesterol) content of the control group, B is the triglycerides (cholesterol) content of the normal group, and C is the triglycerides (cholesterol) content of the group to which the present compound is given.

triglycerides = experiment: Antilipemic effect: percent triglycerides inhibition in plasma of rats given an olive oil-cholesterol mixture; assay type: in vivo, male Wistar rats; details: for inhibition in vivo at 100 mg/kg: read-out: Anti-lipemic effect, TG (percent triglycerides inhibition); for inhibition in vivo at 200 mg/kg: read-out: Anti-lipemic effect, TG (percent triglycerides inhibition), asterisked
Experimental: as §1, §2, §3, §4

[1] = oral 100 mg/kg, plasma 8 hours after dosing, Wistar rat
[2] = oral 100 mg/kg, plasma 2 hours after dosing, Wistar rat
[3] = oral, six-week-old male Wistar rats, suspended in 30% aqueous polyethylene glycol 6000, read-out: LD50

Compound	LD50 (Acute toxicity; po) [mg/kg]	inhibition in vivo at 100 mg/kg (cholesterol; [1]) [%]	inhibition in vivo at 100 mg/kg (triglycerides; [2]) [%]	LD50 (Acute toxicity; [3]) [mg/kg]	further results
CCCCC(CC)C(=O)COS(=O)(=O)c1ccc(C)cc1 (stereo not drawn) [Compound 26]	> 4000	72	85	–	–
CCCC(=O)COS(=O)(=O)c1ccccc1C [Compound 29, 2-oxopentyl-o-toluene sulfonate]	–	30	73	> 1500	–
CCCCC(=O)COS(=O)(=O)c1ccccc1C [Compound 30]	> 1500	36	70	–	–
CCCC(=O)COS(=O)(=O)c1ccc(OC)cc1 [Compound 34]	> 1500	68	72	–	–
CCCCC(=O)COS(=O)(=O)c1ccc(OC)cc1 [Compound 35, 2-oxahexyl-p-methoxybenzene sulfonate]	–	72	87	> 2000	–
CCCCCC(=O)COS(=O)(=O)c1ccc(OC)cc1 [Compound 36]	> 2000	79	78	–	–
COc1ccc(S(=O)(=O)OCC(=O)CCC(C)C)cc1 [Compound 40]	> 2000	70	72	–	–
C=CCCC(=O)COS(=O)(=O)c1ccc(OC)cc1 [Compound 41]	> 2000	61	82	–	–
CCCC(=O)COS(=O)(=O)c1ccc(OCC)cc1 [Compound 43]	–	–	–	> 2000	inhibition in vivo at 100 mg/kg (cholesterol; Rattus norvegicus, po, 8 h): 120%; inhibition in vivo at 100 mg/kg (triglycerides; Rattus norvegicus, po, 2 h): 97%
CCCCC(=O)COS(=O)(=O)c1ccc(OCC)cc1 [Compound 44]	> 2000	90	99	–	–
CCCCCC(=O)COS(=O)(=O)c1ccc(OCC)cc1 [Compound 45, 2-oxoheptyl-p-ethoxybenzenesulfonate]	–	80	85	> 3000	–
CCCCCCC(=O)COS(=O)(=O)c1ccc(OCC)cc1 [Compound 46, 2-oxooctyl-p-ethoxybenzene sulfonate]	–	62	65	> 3000	–
CCCCCCCCCCC(=O)COS(=O)(=O)c1ccc(OCC)cc1 [Compound 48]	> 4000	55	–	–	inhibition in vivo at 200 mg/kg (triglycerides; oral 200 mg/kg (asterisked values), plasma 2 hours after dosing, Wistar rat): 72%
CCOc1ccc(S(=O)(=O)OCC(=O)C(C)CC)cc1 (stereo not drawn) [Compound 49]	> 2000	96	90	–	–
CCOc1ccc(S(=O)(=O)OCC(=O)CCCCCCC(C)C)cc1 [Compound 51]	–	–	–	> 4000	inhibition in vivo at 100 mg/kg (cholesterol; Rattus norvegicus, po, 8 h): 62%; inhibition in vivo at 200 mg/kg (triglycerides; Rattus norvegicus, po, 2 h): 70%
C=CCCC(=O)COS(=O)(=O)c1ccc(OCC)cc1 [Compound 52]	> 2000	97	95	–	–
CCCCOc1ccc(S(=O)(=O)OCC(=O)CCC)cc1 [Compound 53]	–	–	–	> 2000	inhibition in vivo at 100 mg/kg (cholesterol; Rattus norvegicus, po, 8 h): 42%; inhibition in vivo at 100 mg/kg (triglycerides; Rattus norvegicus, po, 2 h): 61%
CCCCCC(=O)COS(=O)(=O)c1ccc(OCCCC)cc1 [Compound 55]	–	–	–	> 3000	Anti-lipemic effect, CS (percent cholesterol inhibition), asterisked (cholesterol; oral 200 mg/kg (asterisked values), plasma 8 hours after dosing, Wistar rat): 40%; inhibition in vivo at 200 mg/kg (triglycerides; Rattus norvegicus, po, 2 h): 69%
CCCC(=O)COS(=O)(=O)c1ccc(Cl)cc1 [Compound 64]	> 1000	56	82	–	–
CCCCC(=O)COS(=O)(=O)c1ccc(Cl)cc1 [Compound 65]	> 1000	49	87	–	–
CC(C)CCC(=O)COS(=O)(=O)c1ccc(Cl)cc1 [Compound 70]	> 2000	47	82	–	–
CCC(=O)COS(=O)(=O)c1c(C)cc(C)cc1C [Compound 72]	> 3000	90	91	–	–
